Results published in publication PMC5133556, “Design of a hydroxyapatite-binding antimicrobial peptide with improved retention and antibacterial efficacy for oral pathogen control” (Scientific Reports, 2016).
≈ marks a conversion by molar mass, not a printed value. Residues, ends and D or L forms follow the SMILES beside them.

Columns and labels:
in vitro = in vitro ADME; conditions: both sexes, human, cerebrospinal or other body fluid
Method: The protocols in this section were approved by the Ethics Committee of Zhongshan Hospital, Xiamen University. The methods employed were performed in accordance with the approved guidelines. After acquiring informed consent, human saliva was collected from individual volunteers (two males and two females; Minimum age: 22; maximum age: 28) in the morning prior to oral cleaning. The collected saliva samples were centrifuged at 12,000 rpm for 20 min. The supernatant was collected and filtered through the […] membrane filter to remove any debris. HBAMP was added into the human saliva to achieve the final concentration of 500 μg/ml. The saliva with HBAMP was incubated at 37 °C. At 0, 5, 20 and 60 min, 1 ml samples were taken from the total sample and served in the specific sample bottles, the machine will automatically extract samples from the bottles to detect. The samples were analysed by reversed-phase HPLC using Zorbax Eclipse XDB-C18 analytical column (150 × 4.6 mm, Agilent Technologies, Inc., Santa Clara, CA, USA) protected by a XDB-C18 guard column (4 × 4 mm). For the elution of HBAMP, a flow rate of 1.2 mL/min and a linear gradient from 88:12 to 65:35 (0.1% TFA in water: 0.1% TFA in acetonitrile) for 10 min were employed. Total run time of HPLC-UV (215 nm) analysis was 15 min and the injection volume was set at 40 μL.

S. mutans biofilm = assay type: cell-based; conditions: 250 μg/ml (2× MIC), 10 min treatment of 12 h biofilm on HAp
Method: S. mutans biofilms were grown on the surface of HAp disks that were placed in 24-well plate. Each well of the plate was inoculated with 2 ml of S. mutans in BHIS (10^6 CFU/mL). After incubation anaerobically at 37 °C for 12 h, the HAp disks were washed twice with sterile deionized water and then respectively treated with HBAMP (2× and 4× MIC) and CHX (0.12%) for 10 min. Then biofilms were stained for 20 min in the dark using the LIVE/DEAD® BacLight^TM Bacterial Viability Kit. The biofilm without treatment served as control. Stained biofilms were photographed by CLSM with a 20× objective. Three independent biofilm experiments were performed.

[1] = tested on: Streptococcus mutans (ATCC 25175); assay type: cell-based; conditions: ATCC 25175, 24 h
Method: (§1) Streptococcus sanguinis (ATCC 10556), Actinomyces viscosus (ATCC 19246), Streptococcus mutans (ATCC 25175), were grown in Brain Heart Infusion (BHI; Difco, Detroit, MI, USA) culture medium. Lactobacillus acidophilus (ATCC 4356) was grown in de Man, Rogosa and Sharpe (MRS; Difco, Detroit, MI, USA) culture medium. BHIS (BHI with 2% sucrose) was used for growing S. mutans biofilm. All cultures were grown anaerobically (80% N2, 10% H2 and 10% CO2) at 37 °C. According to the growth curve of bacteria, the exponentially growing cells were harvested by centrifugation and diluted in BHI or MRS to 10^6 CFU/mL based on a regression line derived from McFarland turbidity standards (Pro-Lab Diagnostics, Richmond Hill, ON, Canada).
(§2) MIC and MBC assays were conducted according to the consensus guidelines developed by the Clinical and Laboratory Standards Institute (CLSI)[24]. Two-fold serial dilutions of peptides were prepared in culture medium at a volume of 200 μl/well in 96-well plates and the final concentrations of peptides ranged from 31.25 μg/ml to 2000 μg/ml. Chlorhexidine (0.12%) and culture medium were included as the positive and control group, respectively. Then each well was seeded with 20 μL of bacterial cell suspension (10^6 CFU/mL). The plates were incubated anaerobically at 37 °C for 24 h. The MIC was defined as the lowest concentration of peptide that prevents visible growth of the bacteria tested. […] The MBC was defined as the lowest concentration of peptide resulting in no colony formation on agar plates. All determinations were made from triplicate experiments.

[2] = tested on: Actinomyces viscosus (ATCC 19246); assay type: cell-based; conditions: ATCC 19246, 24 h
Method: as §1, §2

[3] = tested on: Streptococcus sanguinis (ATCC 10556); assay type: cell-based; conditions: ATCC 10556, 24 h
Method: as §1, §2

[4] = tested on: Lactobacillus acidophilus (ATCC 4356); assay type: cell-based; conditions: ATCC 4356, 24 h
Method: as §1, §2

S. mutans = experiment: Time-kill assay; assay type: cell-based, Streptococcus mutans; conditions: 0.12%, 10^6 CFU/mL, CFU counts
Method: The time-kill kinetics of HBAMP against S. mutans was determined by time-kill assay as previously described. S. mutans was grown to exponential phase and diluted to 10^6 CFU/mL in growth medium. […] Bacterial suspension in other tubes that were added with 0.12% CHX and PBS served as the positive and blank control groups, respectively. At time points of 0, 10, 20, 30, 40, 60, and 90 min, 10 μL of cell suspension was collected, serially diluted in PBS and then 50 μL of aliquots were plated onto BHI agar plates. Colony forming units were counted after the plates were incubated anaerobically at 37 °C for 24 h.

Structure (SMILES): CC(C)C[C@H](NC(=O)[C@H](Cc1ccc(O)cc1)NC(=O)[C@H](Cc1c[nH]cn1)NC(=O)[C@H](CC(N)=O)NC(=O)[C@@H](N)CC(N)=O)C(=O)N1CCC[C@H]1C(=O)N[C@@H](CCCNC(=N)N)C(=O)NCC(=O)NCC(=O)NCC(=O)N[C@@H](CCCCN)C(=O)N[C@@H](CCCCN)C(=O)N[C@H](C(=O)N[C@H](C(=O)N[C@@H](Cc1ccccc1)C(=O)N[C@@H](Cc1c[nH]c2ccccc12)C(=O)N[C@H](C(=O)N[C@@H](CCCCN)C(=O)N[C@@H](Cc1ccccc1)C(=O)N[C@@H](CCCCN)C(=O)O)C(C)C)C(C)C)C(C)C [HBAMP] (H-NNHYLPRGGGKKVVFWVKFK-OH)
- remaining at 1 h, 500 μg/ml (in vitro): 80.5%
- bacteria killed in S. mutans biofilm (S. mutans biofilm): approximately 44.7%
- MBC, S. mutans [1]: 250 µg/mL (≈ 105 µM)
- MIC, S. mutans [1]: 125 µg/mL (≈ 52.6 µM)
- MBC, A. viscosus [2]: 500 µg/mL (≈ 211 µM)
- MIC, A. viscosus [2]: 250 µg/mL (≈ 105 µM)
- MBC, S. sanguinis [3]: 2000 µg/mL (≈ 842 µM)
- MIC, S. sanguinis [3]: 500 µg/mL (≈ 211 µM)
- MBC, L. acidophilus [4]: 250 µg/mL (≈ 105 µM)
- MIC, L. acidophilus [4]: 125 µg/mL (≈ 52.6 µM)

Structure (SMILES): CC(C)[C@H](NC(=O)[C@H](Cc1c[nH]c2ccccc12)NC(=O)[C@H](Cc1ccccc1)NC(=O)[C@@H](NC(=O)[C@@H](NC(=O)[C@H](CCCCN)NC(=O)[C@@H](N)CCCCN)C(C)C)C(C)C)C(=O)N[C@@H](CCCCN)C(=O)N[C@@H](Cc1ccccc1)C(=O)N[C@@H](CCCCN)C(=O)O [KSLW, reference compound] (H-KKVVFWVKFK-OH)
- MBC, S. mutans [1]: 125 µg/mL (≈ 95.5 µM)
- MIC, S. mutans [1]: 62.5 µg/mL (≈ 47.8 µM)
- MBC, A. viscosus [2]: 500 µg/mL (≈ 382 µM)
- MIC, A. viscosus [2]: 125 µg/mL (≈ 95.5 µM)
- MBC, S. sanguinis [3]: 2000 µg/mL (≈ 1530 µM)
- MIC, S. sanguinis [3]: 250 µg/mL (≈ 191 µM)
- MBC, L. acidophilus [4]: 125 µg/mL (≈ 95.5 µM)
- MIC, L. acidophilus [4]: 62.5 µg/mL (≈ 47.8 µM)

Structure (SMILES): [H]/N=C(\N/C(=N/[H])NCCCCCCNC(=N)NC(=N)Nc1ccc(Cl)cc1)Nc1ccc(Cl)cc1 [CHX, chlorhexidine]
- time to kill S. mutans (S. mutans): ≤ 10 min
